Reference: patent US9334256B2, “Agents and methods for treating ischemic and other diseases” (NoNO INC., priority 2011, dated 2016)

Target: T1, TRPM7 (Mus musculus, UniProt Q923J1)
T1 construct: expressed in transfected cells; host or cells: HEK-293 tSA (HEK-293T) cells, transient transfection with Lipofectamine 2000
Assay: PI uptake cell death assay in TRPM7-expressing HEK-293 cells (type of assay from Example 1)
Format: cell-based, murine
From the text: The TRPM7 channel provides a pathway for mono- and divalent cations into the cell, and is unique in that it contains a functional C-terminal α-kinase domain. […] The induction of chemical anoxia in host cells such as recombinant HEK293 cells can be used to activate TRPM7. This activation is detectable with the use measurements of cellular calcium accumulation. This is achievable with the use of a fluorescent calcium indicator. Alternatively, this activation can also be measured using radiolabelled Ca2+ (^45Ca^2+) as described previously by Sattler et al. (Sattler et al., 1998) and Aarts et al. (Aarts et al., 2003).
Hoechst 33342 was purchased as a 10 mg/mL solution in water (Molecular Probes Inc., Eugene, Oreg.). Propidium iodide (PI) was purchased as a powder and prepared by dissolving in PBS at 1 mg/mL. PI solutions were stored at 4° C. until use. Hoechst and PI were added directly to cell culture to 5 μg/mL and 10 μg/mL respectively. Cells were incubated at room temperature or at 37° C. for 10 minutes to allow for adequate uptake, and fluorescence observed using a NIKON Eclipse TE2000 inverted microscope and TE-FM Epi-Fluorescence attachment (Nikon Canada).
Untransfected cells or cells transfected with the TRPM7/pTracer or ΔPDZ/pTracer construct were plated onto 24-well plates, 24-hours post-transfection. Untransfected cells were plated at 0.75×10^6 cells/well and transfected cells at 1×10^6 cells/well. The plates were coated with poly-D-lysine to strengthen cell adhesion and to minimize cell loss during washes. Cells were loaded by incubation with 5 μM fluo-3 AM and 0.02% pluronic in HBSS at 37° C. for 30 minutes. Following loading, cells were washed with an aglycaemic HBSS containing, in mM: 20 N-methyl-D-glucamine (NMDG), 121 NaCl, 5 KCl, 10 HEPES acid, 10 HEPES-Na salt, 3 NaHCO3, 1 Na-pyruvate, and 1.8 CaCl2, pH adjusted to 7.4 with HCl. Calcium uptake, as assessed by fluo-3 fluorescence, was measured in response to 0, 5, 10, 15, 20, or 25 mM sodium cyanide (NaCN; Mallinckrodt Baker Inc., Phillipsburg, N.J.) dissolved in aglycaemic HBSS. A 250 mM NaCN stock was prepared in water and stored at room temperature for up to 2 weeks. Measurements of fluo-3 fluorescence were taken over a 2 hour period at 10 minutes intervals at room temperature (22-25° C.). Calcium uptake assays were performed 48 hours post-transfection.
Cell death, as assessed by PI uptake, was examined at the end of the 2 hour calcium uptake assay. Cells were stained with 10 μg/mL PI and PI fluorescence measured using the Fluoroskan microplate reader (λ excitation=590 nm, λ emission=630 nm) and accompanying Ascent software (Thermo Electron Corp.). To obtain a reading of maximal fluorescence (Fmax), 0.5% Triton X-100 was added to each well and allowed to incubate for 20 minutes. Cell death assays were performed 48 hours post-transfection.
Data was entered into Excel (Microsoft, Seattle, Wash.) or SigmaPlot (SPSS Inc., Chicago, Ill.) for analysis. Pooled data are presented as the mean of at least 3 separate experiments±sem. Calcium uptake is expressed as a fraction of baseline uptake: ΔFt=(Ft−Fo)/Fo where Ft is the fluorescence at time t, and Fo is the fluorescence at baseline. Cell death is expressed as a percentage of total cell death: cell death (%)=Ft/Fmax×100 where Ft is the fluorescence at time t and Fmax is the maximal fluorescence obtained by permeabilization with Triton X-100. Concentration-response curves were fit by nonlinear regression with a 4 parameter logistic curve represented by the following equation: y=min+{(max−min)/[1+(x/EC50)n]} where y is the response at concentration x, min is the minimal response, max is the maximal response, EC50 is the concentration required for half-maximal response, and n is the Hill slope. Statistical analysis of data was carried out with a two-tailed Student's t test, or a one-way analysis of variance (ANOVA) followed by post hoc pairwise multiple comparisons testing using the Holm-Sidak method, where appropriate. […]

[1] = Table X, the lower the number, the more potent in protecting against cell death
[2] = Table X, the lower the number, the more potent
[3] = Table Y, commercially available compounds

T1 sequence (Q923J1 whole entry): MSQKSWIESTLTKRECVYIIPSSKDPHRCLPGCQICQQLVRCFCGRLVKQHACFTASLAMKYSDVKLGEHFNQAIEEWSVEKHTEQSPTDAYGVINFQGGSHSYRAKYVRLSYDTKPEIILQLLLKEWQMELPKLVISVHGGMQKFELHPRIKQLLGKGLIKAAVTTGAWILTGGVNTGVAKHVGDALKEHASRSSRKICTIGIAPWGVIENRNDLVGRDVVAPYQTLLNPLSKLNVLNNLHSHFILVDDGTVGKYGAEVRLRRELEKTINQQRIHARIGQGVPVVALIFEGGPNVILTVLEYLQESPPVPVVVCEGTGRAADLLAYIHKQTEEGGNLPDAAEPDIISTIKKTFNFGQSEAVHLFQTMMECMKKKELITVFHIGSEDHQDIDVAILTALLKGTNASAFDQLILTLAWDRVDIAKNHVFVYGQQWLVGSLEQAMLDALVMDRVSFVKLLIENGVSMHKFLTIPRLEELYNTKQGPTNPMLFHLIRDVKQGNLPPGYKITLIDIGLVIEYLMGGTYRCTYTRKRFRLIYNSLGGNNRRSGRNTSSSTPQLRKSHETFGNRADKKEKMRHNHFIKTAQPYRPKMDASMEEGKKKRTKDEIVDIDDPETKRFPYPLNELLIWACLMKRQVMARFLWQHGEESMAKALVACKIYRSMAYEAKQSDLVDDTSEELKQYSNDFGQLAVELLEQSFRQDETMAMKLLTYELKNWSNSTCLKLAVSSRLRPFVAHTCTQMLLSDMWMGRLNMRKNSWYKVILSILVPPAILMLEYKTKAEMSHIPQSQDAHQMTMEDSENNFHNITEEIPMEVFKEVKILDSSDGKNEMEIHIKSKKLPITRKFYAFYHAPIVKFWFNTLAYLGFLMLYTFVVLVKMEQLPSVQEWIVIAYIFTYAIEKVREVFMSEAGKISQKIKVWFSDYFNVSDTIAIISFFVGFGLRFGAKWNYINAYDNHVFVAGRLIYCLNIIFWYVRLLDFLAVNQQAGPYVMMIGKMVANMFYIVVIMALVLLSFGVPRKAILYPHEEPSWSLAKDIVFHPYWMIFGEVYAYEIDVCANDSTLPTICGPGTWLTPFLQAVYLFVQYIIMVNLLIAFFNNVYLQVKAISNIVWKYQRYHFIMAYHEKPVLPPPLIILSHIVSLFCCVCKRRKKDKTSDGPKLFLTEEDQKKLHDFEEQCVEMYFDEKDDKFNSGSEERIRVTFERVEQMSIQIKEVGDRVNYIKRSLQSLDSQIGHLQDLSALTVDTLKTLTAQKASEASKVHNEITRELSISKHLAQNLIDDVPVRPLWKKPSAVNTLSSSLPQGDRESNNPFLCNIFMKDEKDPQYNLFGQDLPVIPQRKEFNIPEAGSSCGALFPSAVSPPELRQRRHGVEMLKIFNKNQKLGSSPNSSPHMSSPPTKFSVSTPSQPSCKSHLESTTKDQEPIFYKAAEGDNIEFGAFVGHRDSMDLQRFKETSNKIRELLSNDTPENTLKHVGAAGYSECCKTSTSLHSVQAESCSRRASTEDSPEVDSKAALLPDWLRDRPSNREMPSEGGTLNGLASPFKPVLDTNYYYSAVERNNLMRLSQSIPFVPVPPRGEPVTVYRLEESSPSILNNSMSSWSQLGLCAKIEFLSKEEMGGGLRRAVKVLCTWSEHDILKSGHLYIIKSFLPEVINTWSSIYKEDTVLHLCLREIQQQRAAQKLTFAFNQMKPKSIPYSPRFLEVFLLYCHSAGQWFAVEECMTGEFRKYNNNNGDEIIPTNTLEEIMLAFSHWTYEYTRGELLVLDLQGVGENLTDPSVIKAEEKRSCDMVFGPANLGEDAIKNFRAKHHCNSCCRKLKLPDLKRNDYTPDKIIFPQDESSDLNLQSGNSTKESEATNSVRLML

Structure (SMILES) | Normalized ratio of PI uptake (5 μM) [1] | Normalized ratio of PI uptake (10 μM) [2] | IC50 (Table X) [µM] | Normalized ratio of PI uptake (5 μM) [3] | Normalized ratio of PI uptake (10 μM) [3] | IC50 [3] [µM]
COc1cc2ccnc(-c3sc4ccccc4c3Cl)c2cc1OC [Compound 108] | 0.038 | 0.11 | 1.09 |  |  | 
Cc1cccc2sc(C3=NCCc4ccc(Cl)cc43)c(Cl)c12 [Compound 116] | 0.788 | 0.358 | 4.75 |  |  | 
Cc1c(Cc2cccc(Cl)c2)c(=O)[nH]c2cc(O)cc(O)c12 [Compound 140] | 0.487 | 0.062 | 11.1 |  |  | 
Clc1cccc2c1CCNC2c1sc2ccccc2c1Cl (stereo not drawn) [Compound 125] | 0.363 | 0.122 | 4.69 |  |  | 
CC1c2ccsc2CCN1C(=O)c1c(Cl)c2ccccc2n1C (stereo not drawn) [T6857127 #7, reference compound] |  |  |  | 0 | 0 | 0.8
COc1ccc2c(Cl)c(C3=NCCc4cc(OC)c(OC)cc43)sc2c1 [Compound 67] | 0.054 | 0.019 | 0.37 |  |  | 
Cc1ccc2c(c1)CCCN2C(=O)c1sc2cc(C(F)(F)F)ccc2c1Cl [Compound 46] | 0.149 | 0.137 | 1.88 |  |  | 
COc1ccc2c(c1)C(c1sc3ccccc3c1Cl)NCC2 (stereo not drawn) [Compound 124] | 0 | 0.06 | 1.13 |  |  | 
Cc1ccc(N(Cc2ccccn2)C(=O)c2sc3ccccc3c2Cl)c(C)c1 [Compound 57] | 0.110 | 0.039 | 1.71 |  |  | 
CCN1CCc2cc(OC)c(OC)cc2C1c1sc2ccccc2c1Cl (stereo not drawn) [Compound 129] | 0.05 | 0.07 | 2.23 |  |  | 
COc1ccc(-c2n[nH]cc2CN(C)Cc2cc3ccccc3s2)cc1F [Ambcb42783454 #13, reference compound] |  |  |  | 0.498 | 0.266 | 4.7
Cc1ccc(N(Cc2ccc3ccccc3n2)C(=O)c2sc3ccccc3c2Cl)c(C)c1 [Compound 104] | 0.307 | 0.094 | 0.98 |  |  | 
O=S(=O)(Nc1sc2ccccc2c1Cl)c1ccc(F)cc1 [Compound 64] | 0.154 | 0.080 | 2.87 |  |  | 
CN1CCc2cc(F)ccc2C1c1sc2ccccc2c1Cl (stereo not drawn) [Compound 44] | 0.336 | 0.070 | 4.25 |  |  | 
Cc1cccc2sc(C3NCCc4c(F)cccc43)c(Cl)c12 (stereo not drawn) [Compound 127] | 0.038 | 0.044 | 0.93 |  |  | 
COc1cc(OC)c2c(C)c(Cc3ccc(Cl)c(Cl)c3)c(=O)[nH]c2c1 [Compound 130] | 0.1 | 0.06 | 0.93 |  |  | 
Cc1ccc2c(c1)CCCN2C(=O)c1sc2ccccc2c1Cl [Compound 2] | 0.179 | 0.018 | 3.27 |  |  | 
COc1ccc2c(c1)C(c1sc3cccc(C)c3c1Cl)NCC2 (stereo not drawn) [Compound 128] | 0.01 | 0.06 | 0.43 |  |  | 
COc1cc2c(cc1OC)C(c1sc3cccc(C)c3c1Cl)NCC2 (stereo not drawn) [Compound 73] | 0.000 | 0.000 | 0.18 |  |  | 
Cc1ccc(N(Cc2cccnc2)C(=O)c2sc3ccccc3c2Cl)c(C)c1 [Compound 106] | 0 | 0.054 | 1.2 |  |  | 
Cc1ccc2c(c1)CCCN2C(=O)c1sc2cc(F)ccc2c1Cl [Compound 7] | 0.274 | 0.067 | 4.05 |  |  | 
